Calls of active or inactive are those of the source. No cut-off for these calls is given here.

Experiment [1] is described as follows: Ex vivo inhibition of synaptosomal serotonin re-uptake 10 to 100 uM relative to control. The conditions noted are these: Synaptosome; dose 10-100 µM. Type of experiment: functional, subcellular.
Experiment [2] has as its system Oocyte. Nature of the experiment: Allosteric modulation of GABAA alpha1beta2N265Igamma2 mutant (unknown origin) expressed in Xenopus oocytes assessed as potentiation of GABA-induced current response at 3 uM at -80 mV holding potential incubated for 3 mins by two electrode voltage clamp method. Format: cell-based. The conditions noted are these: Homo sapiens. On the technique in general: Two-electrode voltage clamp is typically applied to oocytes expressing channels or transporters.

For experiment [3], the target named is T1, GABA-A receptor; alpha-1/beta-2/gamma-2 (Homo sapiens) (UniProt P14867+P47870+P18507). Briefly: Allosteric modulation of GABAA alpha1beta2gamma2 (unknown origin) expressed in Xenopus oocytes assessed as potentiation of GABA-induced current response at 3 uM at -80 mV holding potential incubated for 3 mins by two electrode voltage clamp method. Format: cell-based. The note with it: Oocyte, filed as positive allosteric modulator.

In experiment [4] the test system is Oocyte. Nature of the experiment: Allosteric modulation of GABAA alpha6beta2gamma2 (unknown origin) expressed in Xenopus oocytes assessed as potentiation of GABA-induced current response at 3 uM at -80 mV holding potential incubated for 3 mins by two electrode voltage clamp method. Type of experiment: cell-based. The conditions noted are these: Homo sapiens, filed as positive allosteric modulator.

In experiment [5] the target is Gamma-aminobutyric acid receptor subunit alpha-1/beta-2/delta (Homo sapiens) (UniProt P14867+P47870+O14764). Nature of the experiment: Allosteric modulation of GABAA alpha1beta2delta (unknown origin) expressed in Xenopus oocytes assessed as potentiation of GABA-induced current response at 3 uM at -80 mV holding potential incubated for 3 mins by two electrode voltage clamp method. The note with it: Oocyte, filed as positive allosteric modulator. Format: cell-based.

The target in experiment [6] is T1, GABA-A receptor; alpha-1/beta-2/gamma-2 (Homo sapiens). Briefly: Allosteric modulation of GABAA alpha1beta2gamma2 (unknown origin) expressed in Xenopus oocytes assessed as potentiation of GABA-induced current response at 3 uM at -80 mV holding potential incubated for 3 mins by two electrode voltage clamp method relative to control. Type of experiment: cell-based. The note with it: Oocyte, filed as positive allosteric modulator.

Experiment [7] has as its system Oocyte. Nature of the experiment: Allosteric modulation of GABAA alpha1S269Ibeta2gamma2 mutant (unknown origin) expressed in Xenopus oocytes assessed as potentiation of GABA-induced current response at 3 uM at -80 mV holding potential incubated for 3 mins by two electrode voltage clamp method. Format: cell-based. The conditions noted are these: Homo sapiens.
For experiment [8], the target named is T1, GABA-A receptor; alpha-1/beta-2/gamma-2 (Homo sapiens). Briefly: Allosteric modulation of GABAA alpha1beta2gamma2 (unknown origin) expressed in Xenopus oocytes assessed as potentiation of GABA-induced current response at 30 uM at -80 mV holding potential incubated for 3 mins by two electrode voltage clamp method. Type of experiment: cell-based. The conditions noted are these: Oocyte, filed as positive allosteric modulator.

Experiment [9] concerns Oocyte. Nature of the experiment: Allosteric modulation of GABAA alpha1S269Ibeta2N265Igamma2S280I mutant (unknown origin) expressed in Xenopus oocytes assessed as potentiation of GABA-induced current response at 3 uM at -80 mV holding potential incubated for 3 mins by two electrode voltage clamp method. Type of experiment: cell-based. The conditions noted are these: Homo sapiens.

In experiment [10] the test system is Oocyte. Nature of the experiment: Allosteric modulation of GABAA alpha1beta2gamma2S280I mutant (unknown origin) expressed in Xenopus oocytes assessed as potentiation of GABA-induced current response at 3 uM at -80 mV holding potential incubated for 3 mins by two electrode voltage clamp method. Format: cell-based. The conditions noted are these: Homo sapiens.

The next experiment is filed under the species Homo sapiens. Briefly: Allosteric modulation of GABA(A)/BzR (unknown origin) assessed as potentiation of GABA-induced current response at 3 uM relative to control. The conditions noted are these: filed as positive allosteric modulator.
Experiment [11] has as its system Oocyte. Briefly: Allosteric modulation of GABAA alpha2beta2gamma2 (unknown origin) expressed in Xenopus oocytes assessed as potentiation of GABA-induced current response at 3 uM at -80 mV holding potential incubated for 3 mins by two electrode voltage clamp method. Format: cell-based. The conditions noted are these: Homo sapiens, filed as positive allosteric modulator.

The target of experiment [12] is T1, GABA-A receptor; alpha-1/beta-2/gamma-2 (Homo sapiens). Nature of the experiment: Allosteric modulation of GABAA alpha1beta2gamma2 (unknown origin) expressed in Xenopus oocytes at 3 uM at -80 mV holding potential incubated for 3 mins by two electrode voltage clamp method relative to control. Type of experiment: cell-based. The note with it: Oocyte.
Experiment [13] concerns Oocyte. Nature of the experiment: Allosteric modulation of GABAA alpha3beta2gamma2 (unknown origin) expressed in Xenopus oocytes assessed as potentiation of GABA-induced current response at 3 uM at -80 mV holding potential incubated for 3 mins by two electrode voltage clamp method. Format: cell-based. The note with it: Homo sapiens, filed as positive allosteric modulator.

Experiment [14] has as its target T1, GABA-A receptor; alpha-1/beta-2/gamma-2 (Homo sapiens). Nature of the experiment: Allosteric modulation of GABAA alpha1beta2gamma2 (unknown origin) expressed in Xenopus oocytes assessed as potentiation of GABA-induced current response at 10 uM at -80 mV holding potential incubated for 3 mins by two electrode voltage clamp method. Format: cell-based. The conditions noted are these: Oocyte, filed as positive allosteric modulator.

Experiment [15] has the same target. Nature of the experiment: Allosteric modulation of GABAA alpha1beta2gamma2 (unknown origin) expressed in Xenopus oocytes assessed as potentiation of GABA-induced current response at -80 mV holding potential incubated for 3 mins by two electrode voltage clamp method relative to control. Format: cell-based. The conditions noted are these: Oocyte, filed as positive allosteric modulator.

The target in experiment [16] is GABA A receptor alpha-1/beta-1/gamma-2 (Homo sapiens) (UniProt P14867+P18507+P18505). Briefly: Allosteric modulation of GABAA alpha1beta1gamma2 (unknown origin) expressed in Xenopus oocytes assessed as potentiation of GABA-induced current response at 3 uM at -80 mV holding potential incubated for 3 mins by two electrode voltage clamp method. Type of experiment: cell-based. The note with it: Oocyte, filed as positive allosteric modulator.

Experiment [17] has as its target T1, GABA-A receptor; alpha-1/beta-2/gamma-2 (Homo sapiens). Nature of the experiment: Allosteric modulation of GABAA alpha1beta2gamma2 (unknown origin) expressed in Xenopus oocytes assessed as potentiation of GABA-induced current response at 0.1 uM at -80 mV holding potential incubated for 3 mins by two electrode voltage clamp method relative to control. Format: cell-based. The conditions noted are these: Oocyte, filed as positive allosteric modulator.

The target in experiment [18] is Gamma-aminobutyric acid receptor subunit alpha-5/beta-2/gamma-2 (Homo sapiens) (UniProt P47870+P18507+P31644). Briefly: Allosteric modulation of GABAA alpha5beta2gamma2 (unknown origin) expressed in Xenopus oocytes assessed as potentiation of GABA-induced current response at 3 uM at -80 mV holding potential incubated for 3 mins by two electrode voltage clamp method. The note with it: Oocyte, filed as positive allosteric modulator. Format: cell-based.

Experiment [19] addresses T2, GABA-A receptor; alpha-1/beta-2/gamma-2 (Homo sapiens, UniProt P14867+P18507+P47870).
T2 sequence (P14867 whole entry): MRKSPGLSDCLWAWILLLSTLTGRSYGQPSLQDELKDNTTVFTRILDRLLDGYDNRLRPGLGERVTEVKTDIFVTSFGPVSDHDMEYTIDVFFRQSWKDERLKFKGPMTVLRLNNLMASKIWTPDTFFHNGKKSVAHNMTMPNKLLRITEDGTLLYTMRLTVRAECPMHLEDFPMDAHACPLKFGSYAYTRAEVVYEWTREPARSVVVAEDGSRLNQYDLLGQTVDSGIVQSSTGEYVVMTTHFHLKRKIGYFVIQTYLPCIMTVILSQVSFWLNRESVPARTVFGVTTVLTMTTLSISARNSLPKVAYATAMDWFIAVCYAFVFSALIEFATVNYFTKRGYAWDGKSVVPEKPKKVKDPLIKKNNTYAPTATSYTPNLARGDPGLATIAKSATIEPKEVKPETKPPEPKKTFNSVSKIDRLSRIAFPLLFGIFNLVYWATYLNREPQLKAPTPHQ
T2 sequence (P47870 whole entry): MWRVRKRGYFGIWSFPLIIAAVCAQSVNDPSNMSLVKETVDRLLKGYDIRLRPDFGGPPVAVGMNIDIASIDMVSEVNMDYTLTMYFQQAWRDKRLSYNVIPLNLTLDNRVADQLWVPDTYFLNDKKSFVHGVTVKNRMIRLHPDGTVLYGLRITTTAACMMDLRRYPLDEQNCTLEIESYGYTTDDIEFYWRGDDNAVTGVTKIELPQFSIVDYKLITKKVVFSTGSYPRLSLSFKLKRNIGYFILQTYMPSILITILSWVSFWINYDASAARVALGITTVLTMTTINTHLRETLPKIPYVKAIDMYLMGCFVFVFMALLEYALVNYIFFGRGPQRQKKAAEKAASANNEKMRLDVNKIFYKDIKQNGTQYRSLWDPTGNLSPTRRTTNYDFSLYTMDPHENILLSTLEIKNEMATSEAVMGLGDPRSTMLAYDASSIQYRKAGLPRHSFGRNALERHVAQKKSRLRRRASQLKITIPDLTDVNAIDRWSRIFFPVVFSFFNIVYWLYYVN
T2 sequence (P18507 whole entry): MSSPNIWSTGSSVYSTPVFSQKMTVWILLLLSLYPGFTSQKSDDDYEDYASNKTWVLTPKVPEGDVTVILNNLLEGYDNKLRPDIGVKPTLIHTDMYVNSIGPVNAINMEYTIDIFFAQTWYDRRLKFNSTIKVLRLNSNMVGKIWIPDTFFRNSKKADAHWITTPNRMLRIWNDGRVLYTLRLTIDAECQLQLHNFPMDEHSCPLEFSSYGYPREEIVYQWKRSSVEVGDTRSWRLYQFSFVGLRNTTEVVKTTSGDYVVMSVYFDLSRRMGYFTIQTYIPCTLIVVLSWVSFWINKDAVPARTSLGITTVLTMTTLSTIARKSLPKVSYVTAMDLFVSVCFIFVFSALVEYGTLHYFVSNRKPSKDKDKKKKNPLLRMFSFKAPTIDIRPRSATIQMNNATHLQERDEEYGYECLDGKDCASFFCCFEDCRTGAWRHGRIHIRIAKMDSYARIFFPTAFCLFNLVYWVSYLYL
Briefly: Allosteric modulation of GABAA alpha1beta2gamma2 (unknown origin) expressed in Xenopus oocytes assessed as potentiation of GABA-induced current response at -80 mV holding potential incubated for 3 mins by two electrode voltage clamp method. Format: cell-based, Oocyte.

Experiment [20] deals with GABA-A receptor; alpha-1/beta-3/gamma-2 (Homo sapiens) (UniProt P14867+P18507+P28472). Briefly: Allosteric modulation of GABAA alpha1beta3gamma2 (unknown origin) expressed in Xenopus oocytes assessed as potentiation of GABA-induced current response at 3 uM at -80 mV holding potential incubated for 3 mins by two electrode voltage clamp method. Type of experiment: cell-based. The conditions noted are these: Oocyte, filed as positive allosteric modulator.

A short description of experiment [21]: Ex vivo inhibition of synaptosomal serotonin re-uptake 100 uM. Format: functional, subcellular. The note with it: Synaptosome.

As a reminder, the inhibition is the percentage by which the read-out fell short of the control. As for `CC(C)=CCC[C@]1(C)[C@@H](CC=C(C)C)C[C@]2(CC=C(C)C)C(=O)C(CC=C(C)C)=C(O)[C@@]1(C(=O)C(C)C)C2=O`, the inhibition in experiment [1] was found to be 100%.

What is called EC50 is the concentration needed to bring the measured effect to its halfway point. With `CC(C)=CCc1c(O)cc2c(c1O)C(=O)[C@H](C)[C@@H](C)O2`, the result in the experiment with Oocyte [2], in the experiment on Oocyte [7], with Oocyte [9] and in the experiment with Oocyte [10] was inactive. Also, the outcome (in [3]; in the experiment with Oocyte [4]; in experiment [5]; in experiment [8]; with Oocyte [11]; in the experiment on Oocyte [13]) was Active. Further, the outcome in experiment [14], in experiment [16], in experiment [18] and in experiment [20] was Active. For the same molecule, the Activity in experiment [6] was 3830%; in the experiment listed under Homo sapiens, 459%; in experiment [12] it was 0.71%; in experiment [15] it was 4430%; in experiment [17] it was 60%. Besides, the EC50 in experiment [19] was found to be 4.5 µM. The inhibition result in experiment [21] is “inactive”.

Consider `CN1C(=O)CN=C(c2ccccc2)c2cc(Cl)ccc21`, for which the Activity in experiment [17] is over 200%.

The record behind these values is ChEMBL document CHEMBL4715701, “A new chromanone derivative isolated from Hypericum lissophloeus (Hypericaceae) potentiates GABAA receptor currents in a subunit specific fashion” (Bioorg Med Chem, 2016).
